Results taken from PMC9548378 (Science translational medicine, 2022).

Target: T1, KDM4B (Homo sapiens, UniProt O94953)
T1 sequence (O94953 1-366): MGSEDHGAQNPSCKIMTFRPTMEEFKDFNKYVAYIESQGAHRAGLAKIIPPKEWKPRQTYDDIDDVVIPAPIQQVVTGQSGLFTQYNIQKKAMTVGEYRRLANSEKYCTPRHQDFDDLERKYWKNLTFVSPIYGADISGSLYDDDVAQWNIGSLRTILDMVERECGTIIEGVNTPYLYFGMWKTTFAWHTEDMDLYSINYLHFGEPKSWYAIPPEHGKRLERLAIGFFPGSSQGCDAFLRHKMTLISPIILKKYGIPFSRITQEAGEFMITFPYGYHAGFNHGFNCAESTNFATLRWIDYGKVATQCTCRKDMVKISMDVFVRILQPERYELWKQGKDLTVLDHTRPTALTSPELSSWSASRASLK
Test: co-crystal structure
Type: binding

## CN(c1ccccc1)c1ccc2c(c1)CCC[C@H]2CNc1cnccc1C(=O)O [QC6352]
  Kd: 105 nM
